Common to all, as to type: in vivo
One experiment deals with Diamondback moth. In words: Test examples 2: leaf dipping method, Diamondback moth. The following applies: Plutella xylostella, foliar, 72 h, after 3 days, read-out: The mortality rate (%) of the compound to Diamondback moth; for mortality at 12.5 µg/mL: 12.5 mg/L; for mortality at 25 µg/mL: 25 mg/L; for mortality at 50 µg/mL: 50 mg/L. How it is done: (§1) A certain amount of compound (0.0001 g) was weighed by using an analytical balance, and prepared to a mother liquid (1%) with N, N-dimethylformamide containing 1% Tween-80 emulsifier, and then the mother liquid was diluted with distilled water for standby.
(§2) Leaf dipping method: an appropriate amount of corn leaves/cabbage/cowpea were infiltrated in the prepared liquid and dried in the shade naturally, and then placed in a culture dish with filter paper; armyworm/Diamondback moth/Beet Armyworm larvae in the 2-3rd instar were inoculated to the corn leaves, 10 heads per dish, and the dishes were cultured in an observation room at 24-27° C. The results were investigated after 3 days. […] The test concentrations were 50 mg/L, 25 mg/L, 12.5 mg/L, 6.25 mg/L, 3.13 mg/L, 1.56 mg/L.

The subject of the next experiment is Armyworm. Put plainly: Test examples 2: leaf dipping method, Armyworm. Conditions: Mythimna separata, foliar, 72 h, after 3 days, read-out: The mortality rate (%) of the compound to Armyworm; for mortality at 12.5 µg/mL: 12.5 mg/L; for mortality at 25 µg/mL: 25 mg/L; for mortality at 50 µg/mL: 50 mg/L. How it is done: as §1, §2
For a further experiment, the system named is Beet Armyworm. Put plainly: Test examples 2: leaf dipping method, Beet Armyworm. Conditions: Spodoptera exigua, foliar, 72 h, after 3 days, read-out: The mortality rate (%) of the compound to Beet Armyworm; for mortality at 12.5 µg/mL: 12.5 mg/L; for mortality at 25 µg/mL: 25 mg/L; for mortality at 50 µg/mL: 50 mg/L. How it is done: as §1, §2
For experiment [1], the system named is Frankliniella occidentalis. Put plainly: Test examples 2: spraying of cowpea leaf discs, Frankliniella occidentalis. The following applies: foliar, 24 h, after 1 day, read-out: The mortality rate (%) of the compound to Frankliniella occidentalis; for mortality at 5 µg/mL: 5 mg/L; for mortality at 10 µg/mL: 10 mg/L; for mortality at 20 µg/mL: 20 mg/L. The protocol:
as §1
Spraying: cowpea leaves growing uniformity were punched with a punching bear to make leaf discs, leaf discs were placed onto degreased cotton blocks in a dish, two leaf discs per dish, and water was added into the dish and it was flush with the leaf discs, and the dish was for standby. Frankliniella occidentalis in the 2-3rd instar were inoculated to the ready leaf discs, more than 15 per disc. Which were spayed under Potter spray tower at a dose of 0.5 mL per treatment. The blank control was treated first, and then the above operations were repeated in the order of the test dose from low to high, with 2 repeats per treatment. After treatment, the samples were placed in the observation room, and the results were investigated 1 day later. […] The test concentrations were 20 mg/L, 10 mg/L, 5.0 mg/L, 2.5 mg/L, 1.25 mg/L, 0.625 mg/L.

What is called mortality is the share of the test organisms that died. As for `CCc1nc2cc(C)c(Oc3ccc(C(C)(C)C)cc3)c(C)c2c(OC(=O)OCC2CCCO2)c1C` (stereo not drawn) [Example 36, 6-(4-(tert-butyl)phenoxy)-2-ethyl-3,5,7-trimethylquinolin-4-yl ((tetrahydrofuran-2-yl)methyl) carbonate], in the experiment on Diamondback moth, the mortality at 12.5 µg/mL came out at 85%, the mortality at 25 µg/mL was 95% and the mortality at 50 µg/mL worked out at 100%. Further, in the experiment on Armyworm, the mortality at 12.5 µg/mL is 90%, the mortality at 25 µg/mL amounted to 100% and the mortality at 50 µg/mL was 100%.
Regarding `CCc1nc2cc(C)c(Oc3ccc(OC(F)(F)F)cc3)cc2c(OC(=O)OCCOCCOC)c1C` [Example 7], in the experiment with Diamondback moth, the mortality at 12.5 µg/mL was determined as 85%, the mortality at 25 µg/mL was 90% and the mortality at 50 µg/mL was 100%. Also, in the experiment with Beet Armyworm, the mortality at 12.5 µg/mL was 80%, the mortality at 25 µg/mL was 100% and the mortality at 50 µg/mL is 100%. Further, in experiment [1], the mortality at 5 µg/mL turned out to be 95%, the mortality at 10 µg/mL is 100% and the mortality at 20 µg/mL was 100%. Besides, in the experiment with Armyworm, the mortality at 12.5 µg/mL amounted to 100%, the mortality at 25 µg/mL is 100% and the mortality at 50 µg/mL worked out at 100%.
As for `CCc1nc2ccc(Oc3ccc(C(C)(C)C)cc3)c(C)c2c(OC(=O)OCC2CCCO2)c1C` (stereo not drawn) [Example 35, 6-(4-(tert-butyl)phenoxy)-2-ethyl-3,5-dimethylquinolin-4-yl ((tetrahydrofuran-2-yl)methyl) carbonate], in the experiment on Diamondback moth, the mortality at 12.5 µg/mL came out at 80%, the mortality at 25 µg/mL amounted to 90% and the mortality at 50 µg/mL came to 100%. In addition, in the experiment on Armyworm, the mortality at 12.5 µg/mL was 80%, the mortality at 25 µg/mL came out at 95% and the mortality at 50 µg/mL was 100%.
`CCc1nc2cc(C)c(Oc3ccc(C(C)(C)C)cc3)cc2c(OC(=O)OCCOC)c1C` [Example 4, 6-(4-(tert-butyl)phenoxy)-2-ethyl-3,7-dimethylquinolin-4-yl (2-methoxyethyl)carbonate]: in the experiment on Diamondback moth, the mortality at 12.5 µg/mL stood at 90%, the mortality at 25 µg/mL was 100% and the mortality at 50 µg/mL was 100%. For the same molecule, in the experiment on Armyworm, the mortality at 12.5 µg/mL was found to be 80%, the mortality at 25 µg/mL worked out at 90% and the mortality at 50 µg/mL worked out at 100%.
For `CCOCCOC(=O)Oc1c(C)c(CC)nc2cc(C)c(Oc3ccc(OC(F)(F)F)cc3)c(C)c12` [Example 40, 2-ethoxyethyl (2-ethyl-3,5,7-trimethyl-6-(4-(trifluoromethoxy)phenoxy)quinolin-4-yl) carbonate], in the experiment on Diamondback moth, the mortality at 12.5 µg/mL was found to be 95%, the mortality at 25 µg/mL stood at 100% and the mortality at 50 µg/mL was 100%. Also, in the experiment on Armyworm, the mortality at 12.5 µg/mL is 95%, the mortality at 25 µg/mL turned out to be 100% and the mortality at 50 µg/mL amounted to 100%.
For the molecule `CCc1nc2ccc(Oc3ccc(OC(F)(F)F)cc3)c(C)c2c(OC(=O)OCCOC)c1C` [Example 39, 2-ethyl-3,5-dimethyl-6-(4-(trifluoromethoxy)phenoxy)quinolin-4-yl (2-methoxyethyl) carbonate], in the experiment with Diamondback moth, the mortality at 12.5 µg/mL worked out at 100%, the mortality at 25 µg/mL was found to be 100% and the mortality at 50 µg/mL worked out at 100%. Also, in the experiment with Armyworm, the mortality at 12.5 µg/mL is 100%, the mortality at 25 µg/mL worked out at 100% and the mortality at 50 µg/mL came to 100%.
As to `CCc1nc2cc(C)c(Oc3ccc(C(C)(C)C)cc3)c(C)c2c(OC(=O)OCCOC)c1C` [Example 26, 6-(4-(tert-butyl)phenoxy)-2-ethyl-3,5,7-trimethylquinolin-4-yl (2-methoxyethyl) carbonate], in the experiment with Diamondback moth, the mortality at 12.5 µg/mL amounted to 85%, the mortality at 25 µg/mL was determined as 95% and the mortality at 50 µg/mL was 100%. Besides, in the experiment with Armyworm, the mortality at 12.5 µg/mL was found to be 90%, the mortality at 25 µg/mL was found to be 100% and the mortality at 50 µg/mL is 100%.
Take `CCc1nc2cc(C)c(Oc3ccc(OC(F)(F)F)cc3)c(C)c2c(OC(=O)OCCOC)c1C` [Example 18, 2-ethyl-3,5,7-trimethyl-6-(4-(trifluoromethoxy)phenoxy)quinolin-4-yl (2-methoxyethyl) carbonate]: in the experiment with Diamondback moth, the mortality at 12.5 µg/mL came out at 100%, the mortality at 25 µg/mL was determined as 100% and the mortality at 50 µg/mL was found to be 100%. Further, in the experiment on Beet Armyworm, the mortality at 12.5 µg/mL was found to be 90%, the mortality at 25 µg/mL amounted to 100% and the mortality at 50 µg/mL was determined as 100%. Also, in experiment [1], the mortality at 5 µg/mL turned out to be 100%, the mortality at 10 µg/mL came out at 100% and the mortality at 20 µg/mL was 100%. For the same molecule, in the experiment on Armyworm, the mortality at 12.5 µg/mL was 100%, the mortality at 25 µg/mL is 100% and the mortality at 50 µg/mL came out at 100%.
For `CCc1nc2ccc(Oc3ccc(C(C)(C)C)cc3)c(C)c2c(OC(=O)OCCOC)c1C` [Example 22, 6-(4-(tert-butyl)phenoxy)-2-ethyl-3,5-dimethylquinolin-4-yl (2-methoxyethyl) carbonate], in the experiment with Diamondback moth, the mortality at 12.5 µg/mL was 85%, the mortality at 25 µg/mL was found to be 90% and the mortality at 50 µg/mL worked out at 100%. Further, in the experiment on Armyworm, the mortality at 12.5 µg/mL was 80%, the mortality at 25 µg/mL is 95% and the mortality at 50 µg/mL came to 100%.
For the molecule `CCc1nc2ccc(Oc3ccc(OC(F)(F)F)cc3)c(C)c2c(OC(=O)OCC2CCCO2)c1C` (stereo not drawn) [Example 38], in the experiment on Diamondback moth, the mortality at 12.5 µg/mL stood at 92%, the mortality at 25 µg/mL worked out at 100% and the mortality at 50 µg/mL was determined as 100%. In addition, in the experiment on Beet Armyworm, the mortality at 12.5 µg/mL was 70%, the mortality at 25 µg/mL was 100% and the mortality at 50 µg/mL was 100%. In experiment [1], the mortality at 5 µg/mL came to 90%, the mortality at 10 µg/mL was determined as 100% and the mortality at 20 µg/mL came out at 100%. In the experiment on Armyworm, the mortality at 12.5 µg/mL stood at 90%, the mortality at 25 µg/mL turned out to be 100% and the mortality at 50 µg/mL was determined as 100%.
Consider `CCc1nc2cc(C)c(Oc3ccc(OC(F)(F)F)cc3)c(C)c2c(OC(=O)OCCOC(C)C)c1C` [Example 41, 2-ethyl-3,5,7-trimethyl-6-(4-(trifluoromethoxy)phenoxy)quinolin-4-yl (2-isopropoxyethyl) carbonate], for which, in the experiment with Diamondback moth, the mortality at 12.5 µg/mL stood at 90%, the mortality at 25 µg/mL stood at 100% and the mortality at 50 µg/mL amounted to 100%. Also, in the experiment with Armyworm, the mortality at 12.5 µg/mL is 80%, the mortality at 25 µg/mL was found to be 100% and the mortality at 50 µg/mL stood at 100%.
As to `CCc1nc2cc(C)c(Oc3ccc(OC(F)(F)F)cc3)c(C)c2c(OC(=O)OCC2CCCO2)c1C` (stereo not drawn) [Example 37], in the experiment with Diamondback moth, the mortality at 12.5 µg/mL is 95%, the mortality at 25 µg/mL worked out at 100% and the mortality at 50 µg/mL was determined as 100%. Also, in the experiment on Beet Armyworm, the mortality at 12.5 µg/mL is 75%, the mortality at 25 µg/mL is 100% and the mortality at 50 µg/mL came out at 100%. Further, in experiment [1], the mortality at 5 µg/mL was determined as 95%, the mortality at 10 µg/mL came out at 100% and the mortality at 20 µg/mL was determined as 100%. Also, in the experiment on Armyworm, the mortality at 12.5 µg/mL was determined as 100%, the mortality at 25 µg/mL amounted to 100% and the mortality at 50 µg/mL was 100%.
For `CCOCCOC(=O)Oc1c(C)c(CC)nc2cc(C)c(Oc3ccc(OC(F)(F)F)cc3)cc12` [Example 17, 2-ethoxyethyl (2-ethyl-3,7-dimethyl-6-(4-(trifluoromethoxy)phenoxy)quinolin-4-yl) carbonate], in the experiment on Diamondback moth, the mortality at 12.5 µg/mL stood at 100%, the mortality at 25 µg/mL was 100% and the mortality at 50 µg/mL was 100%. In addition, in the experiment with Armyworm, the mortality at 12.5 µg/mL stood at 100%, the mortality at 25 µg/mL came to 100% and the mortality at 50 µg/mL stood at 100%.

Source of the values: patent US20210040041A1, “QUINOLINE DERIVATIVES AND PREPARATION METHODS AND USES THEREOF” (DONGGUAN HEC PESTICIDES R&D CO., LTD., priority 2018, published 2021).
